Results: patent publication US7998995B2 (Exelixis Patent Company LLC, priority 2006, dated 2011)

Each compound was assayed on T1, LXR (assay: Measured EC50 or IC50 for LXR (LXRα and/or LXRβ; assay and subtype not given)). Settings: IC50 or EC50 class, subtype not specified.
T1 construct: fused on or other part: GST fused to the LBD in the FRET assay
Experimental: Measured EC50 or IC50 for LXR, and FXR for Compounds of the Invention
LXR and FXR activities for various compounds of the invention are presented in the following table; those compounds with EC50 or IC50 values <10 μM for at least one of LXRα, LXRβ or FXR are considered to be active. In the following Table, IC50 or EC50 data is represented as follows: A<1 μM, B=1-10 μm, and C>10 μM.

SMILES | EC50
O=C(OCc1ccccc1)c1ccc(OCc2cc(C(F)(F)F)nn2-c2ccccc2Cl)cc1 [Example 7, phenylmethyl 4-({[1-(2-chlorophenyl)-3-(trifluoromethyl)-1H-pyrazol-5-yl]methyl}oxy)benzoate] | > 10 µM
FC(F)(F)c1cc(COc2ccc(-n3cccc3)cc2)n(-c2ccccc2Cl)n1 [Example 8, 1-(2-chlorophenyl)-5-({[4-(1H-pyrrol-1-yl)phenyl]oxy}methyl)-3-(trifluoromethyl)-1H-pyrazole] | < 1 µM
CCOC(=O)c1cc2cc(OCc3cc(C(F)(F)F)nn3-c3ccccc3Cl)ccc2[nH]1 [Example 38, ethyl 5-({[1-(2-chlorophenyl)-3-(trifluoromethyl)-1H-pyrazol-5-yl]methyl}oxy)-1H-indole-2-carboxylate] | > 10 µM
CC(C)(C(=O)O)c1cccc(-c2ccc(OCc3cc(C(F)(F)F)nn3-c3ccccc3Cl)cc2)c1 [Example 92, 2-[4′-({[1-(2-chlorophenyl)-3-(trifluoromethyl)-1H-pyrazol-5-yl]methyl}oxy)biphenyl-3-yl]-2-methylpropanoic acid] | 1 to 10 µM
O=C(O)Cc1cccc(-c2ccc(OCc3cc(C(F)(F)F)nn3-c3ccccc3Cl)cc2)c1 [Example 93, [4′-({[1-(2-chlorophenyl)-3-(trifluoromethyl)-1H-pyrazol-5-yl]methyl}oxy)biphenyl-3-yl]acetic acid] | > 10 µM
O=C(Oc1cccc(OCc2cc(C(F)(F)F)nn2-c2ccccc2Cl)c1)c1ccccc1 [Example 95, 3-({[1-(2-chlorophenyl)-3-(trifluoromethyl)-1H-pyrazol-5-yl]methyl}oxy)phenyl benzoate] | > 10 µM
O=C(O)Cc1ccc(-c2ccc(OCc3cc(C(F)(F)F)nn3-c3ccccc3Cl)cc2)cc1 [Example 98, [4′-({[1-(2-chlorophenyl)-3-(trifluoromethyl)-1H-pyrazol-5-yl]methyl}oxy)biphenyl-4-yl]acetic acid] | > 10 µM
CS(=O)(=O)c1cccc(NC(=O)c2cc(C(F)(F)F)nn2-c2cc(Cl)ccc2Cl)c1 [Example 99, 1-(2,5-dichlorophenyl)-N-[3-(methylsulfonyl)phenyl]-3-(trifluoromethyl)-1H-pyrazole-5-carboxamide] | > 10 µM
O=C(NCc1cccc(C(F)(F)F)c1)c1cc(C(F)(F)F)nn1-c1cc(Cl)ccc1Cl [Example 100, 1-(2,5-dichlorophenyl)-3-(trifluoromethyl)-N-{[3-(trifluoromethyl)phenyl]methyl}-1H-pyrazole-5-carboxamide] | > 10 µM
CS(=O)(=O)c1ccc(CNC(=O)c2cc(C(F)(F)F)nn2-c2cc(Cl)ccc2Cl)cc1 [Example 101, 1-(2,5-dichlorophenyl)-N-{[4-(methylsulfonyl)phenyl]methyl}-3-(trifluoromethyl)-1H-pyrazole-5-carboxamide] | > 10 µM
O=C(NCc1cccc(Cl)c1)c1cc(C(F)(F)F)nn1-c1cc(Cl)ccc1Cl [Example 102, N-[(3-chlorophenyl)methyl]-1-(2,5-dichlorophenyl)-3-(trifluoromethyl)-1H-pyrazole-5-carboxamide] | > 10 µM
CC(C)Oc1ccccc1-n1nc(C(F)(F)F)cc1C(=O)NCc1cccc(C(F)(F)F)c1 [Example 104, 1-{2-[(1-methylethyl)oxy]phenyl}-3-(trifluoromethyl)-N-{[3-(trifluoromethyl)phenyl]methyl}-1H-pyrazole-5-carboxamide] | > 10 µM
CC(=O)c1cccc(NC(=O)Nc2cc(C(F)(F)F)nn2-c2ccccc2C(F)(F)F)c1 [Example 105, N-(3-acetylphenyl)-N′-{3-(trifluoromethyl)-1-[2-(trifluoromethyl)phenyl]-1H-pyrazol-5-yl}urea] | > 10 µM
FC(F)(F)c1cc(COc2ccc(-c3ccccc3)cc2)n(-c2ccccc2Cl)n1 [Example 111, 5-[(biphenyl-4-yloxy)methyl]-1-(2-chlorophenyl)-3-(trifluoromethyl)-1H-pyrazole] | 1 to 10 µM
CS(=O)(=O)c1cccc(-c2ccc(OCc3nc(C(F)(F)F)cn3-c3c(Cl)cccc3Cl)cc2)c1 [Example 114, 1-(2,6-dichlorophenyl)-2-({[3′-(methylsulfonyl)biphenyl-4-yl]oxy}methyl)-4-(trifluoromethyl)-1H-imidazole] | < 1 µM
CS(=O)(=O)c1cccc(-c2ccc(COc3cc(C(F)(F)F)nn3-c3c(Cl)cccc3Cl)cc2)c1 [Example 116, 1-(2,6-dichlorophenyl)-5-({[3′-(methylsulfonyl)biphenyl-4-yl]methyl}oxy)-3-(trifluoromethyl)-1H-pyrazole] | < 1 µM
CS(=O)(=O)c1cccc(-c2ccc(COc3cc(C(F)(F)F)nn3-c3c(Cl)cccc3Cl)c(F)c2)c1 [Example 117, 1-(2,6-dichlorophenyl)-5-({[3-fluoro-3′-(methylsulfonyl)biphenyl-4-yl]methyl}oxy)-3-(trifluoromethyl)-1H-pyrazole] | < 1 µM
CS(=O)(=O)c1cccc(-c2ccc(OCc3cc(C(F)(F)F)nn3-c3c(Cl)cccc3Cl)cc2)c1 [Example 891, 1-(2,6-dichlorophenyl)-5-((3′-(methylsulfonyl)biphenyl-4-yloxy)methyl)-3-(trifluoromethyl)-1H-pyrazole] | < 1 µM
FC(F)(F)c1cc(COc2ccc(-n3cccc3)cc2)n(-c2c(Cl)cccc2Cl)n1 [Example 922, 1-(2,6-dichlorophenyl)-5-({[4-(1H-pyrrol-1-yl)phenyl]oxy}methyl)-3-(trifluoromethyl)-1H-pyrazole] | < 1 µM
FC(F)(F)c1cc(COc2ccc(-n3ccnc3)cc2)n(-c2c(Cl)cccc2Cl)n1 [Example 923, 1-(2,6-dichlorophenyl)-5-({[4-(1H-imidazol-1-yl)phenyl]oxy}methyl)-3-(trifluoromethyl)-1H-pyrazole] | < 1 µM
FC(F)(F)c1cc(COc2ccc(-c3ccccc3)cc2)n(-c2c(Cl)cccc2Cl)n1 [Example 924, 5-[(biphenyl-4-yloxy)methyl]-1-(2,6-dichlorophenyl)-3-(trifluoromethyl)-1H-pyrazole] | 1 to 10 µM

Other lines, results leading:

EC50 | SMILES
> 10 µM | O=C(O)c1cc2cc(OCc3cc(C(F)(F)F)nn3-c3ccccc3Cl)ccc2[nH]1 [Example 9, 5-({[1-(2-chlorophenyl)-3-(trifluoromethyl)-1H-pyrazol-5-yl]methyl}oxy)-1H-indole-2-carboxylic acid]
> 10 µM | CS(=O)(=O)c1cccc(CNC(=O)c2cc(C(F)(F)F)nn2-c2ccccc2Cl)c1 [Example 103, 1-(2-chlorophenyl)-N-{[3-(methylsulfonyl)phenyl]methyl}-3-(trifluoromethyl)-1H-pyrazole-5-carboxamide]
> 10 µM | O=C(NCc1cccc(C(F)(F)F)c1)c1cc(C(F)(F)F)nn1-c1ccccc1Cl [Example 106, 1-(2-chlorophenyl)-3-(trifluoromethyl)-N-{[3-(trifluoromethyl)phenyl]methyl}-1H-pyrazole-5-carboxamide]
1 to 10 µM | NS(=O)(=O)c1cccc(C#Cc2cc(C(F)(F)F)nn2-c2ccccc2Cl)c1 [Example 107, 3-{[1-(2-chlorophenyl)-3-(trifluoromethyl)-1H-pyrazol-5-yl]ethynyl}benzenesulfonamide]
< 1 µM | CS(=O)(=O)c1cccc(C#Cc2cc(C(F)(F)F)nn2-c2ccccc2Cl)c1 [Example 108, 1-(2-chlorophenyl)-5-{[3-(methylsulfonyl)phenyl]ethynyl}-3-(trifluoromethyl)-1H-pyrazole]
< 1 µM | CS(=O)(=O)c1ccc(C#Cc2cc(C(F)(F)F)nn2-c2ccccc2Cl)cc1 [Example 109, 1-(2-chlorophenyl)-5-{[4-(methylsulfonyl)phenyl]ethynyl}-3-(trifluoromethyl)-1H-pyrazole]
1 to 10 µM | CS(=O)(=O)Cc1ccc(C#Cc2cc(C(F)(F)F)nn2-c2ccccc2Cl)cc1 [Example 110, 1-(2-chlorophenyl)-5-({4-[(methylsulfonyl)methyl]phenyl}ethynyl)-3-(trifluoromethyl)-1H-pyrazole]
> 10 µM | CS(=O)(=O)c1cccc(NC(=O)c2cc(C(F)(F)F)nn2-c2ccccc2Cl)c1 [Example 611, 1-(2-chlorophenyl)-N-[3-(methylsulfonyl)phenyl]-3-(trifluoromethyl)-1H-pyrazole-5-carboxamide]
1 to 10 µM | CS(=O)(=O)c1cccc(-c2ccc(OCc3cc(C(F)(F)F)nn3-c3ccccc3Cl)c(Cl)c2)c1 [Example 908, 5-({[3-chloro-3′-(methylsulfonyl)biphenyl-4-yl]oxy}methyl)-1-(2-chlorophenyl)-3-(trifluoromethyl)-1H-pyrazole]
< 1 µM | Cc1cc(-c2cccc(S(C)(=O)=O)c2)ccc1OCc1cc(C(F)(F)F)nn1-c1ccccc1Cl [Example 909, 1-(2-chlorophenyl)-5-({[3-methyl-3′-(methylsulfonyl)biphenyl-4-yl]oxy}methyl)-3-(trifluoromethyl)-1H-pyrazole]
1 to 10 µM | Cc1cc(OCc2cc(C(F)(F)F)nn2-c2ccccc2Cl)ccc1-c1cccc(S(C)(=O)=O)c1 [Example 910, 1-(2-chlorophenyl)-5-({[2-methyl-3′-(methylsulfonyl)biphenyl-4-]oxy}methyl)-3-(trifluoromethyl)-1H-pyrazole]
< 1 µM | CS(=O)(=O)c1cccc(-c2ccc(OCc3cc(C(F)(F)F)nn3-c3ccccc3Cl)cc2Cl)c1 [Example 911, 5-({[2-chloro-3′-(methylsulfonyl)biphenyl-4-yl]oxy}methyl)-1-(2-chlorophenyl)-3-(trifluoromethyl)-1H-pyrazole]
< 1 µM | CS(=O)(=O)c1cccc(-c2ccc(OCc3cc(C(F)(F)F)nn3-c3ccccc3Cl)c(F)c2)c1 [Example 925, 1-(2-chlorophenyl)-5-({[3-fluoro-3′-(methylsulfonyl)biphenyl-4-yl]oxy}methyl)-3-(trifluoromethyl)-1H-pyrazole]
1 to 10 µM | CS(=O)(=O)c1cccc(-c2ccc(OCc3cc(C(F)(F)F)nn3-c3ccccc3Cl)c(C#N)c2)c1 [Example 926, 4-({[1-(2-chlorophenyl)-3-(trifluoromethyl)-1H-pyrazol-5-yl]methyl}oxy)-3′-(methylsulfonyl)biphenyl-3-carbonitrile]
